Results taken from ChEMBL document CHEMBL6087458, “The Discovery of a Novel AXL/Triple Angiokinase Inhibitor Based on 6-Chloro-Substituted Indolinone and Side Chain Methyl Substitution Inhibiting Pancreatic Cancer Growth and Metastasis” (J Med Chem, 2025).
Active and inactive are the calls of the source. The calls are words filed in the database; no cut-off is given here.

Key:
BXPC-3 [1] = experiment: Antitumor activity against human BXPC-3 cells xenografted in mouse assessed as tumor growth inhibition at 50 mg/kg, po administered for 14 days; type: functional; details: BXPC-3, 336 h, time 14 day, read-out: TGI
[2] = Cytotoxicity against human HUVEC cells assessed as cell viability incubated for 72 hrs by MTT assay; type: toxicity, cell-based
BXPC-3 [3] = experiment: cells; details: Homo sapiens, BXPC-3, 72 h
Description: Antiproliferative activity against human BXPC-3 cells assessed as cell viability incubated for 72 hrs by MTT assay

Mitochondrial membrane [4] = experiment: Induction of mitochondrial membrane potential in mouse NIH/3T3 cells assessed as increase in green fluorescence intensity incubated for 48 hrs by JC-1 staining based flow cytometry; type: cell membranes
MDA-MB-231 [5] = experiment: Induction of apoptosis in human MDA-MB-231 cells by annexin V-FITC/propidium iodide staining-based flow cytometry analysis; type: functional, cell-based
[6] = biological target: Vascular endothelial growth factor receptor 2 (Homo sapiens, UniProt P35968); experiment: Inhibition of KDR (unknown origin) by envision reader analysis
BXPC-3 [7] = experiment: Induction of apoptosis in human BXPC-3 cells by annexin V-FITC/propidium iodide staining-based flow cytometry analysis; type: functional, cell-based
[8] = Toxicity in mouse implanted with human BXPC-3 cells assessed as body weight loss at 25 to 50 mg/kg, po measured on day 11; type: organism-based; details: in vivo, 264 h, dose 25-50 mg/kg, time 11 day
[9] = Half life in Sprague-Dawley rat at 5 mg/kg, iv; type: ADME, organism-based; details: in vivo
Mitochondrial membrane [10] = experiment: Induction of mitochondrial membrane potential depolarization in human MDA-MB-231 cells at 0.2 to 0.5 uM incubated for 24 hrs by JC-1 staining based flow cytometry analysis; type: cell membranes; details: dose 0.2-0.5 µM
[11] = Tmax in Sprague-Dawley rat at 50 mg/kg, po; type: ADME, organism-based; details: in vivo
[12] = Clearance in Sprague-Dawley rat at 5 mg/kg, iv; type: ADME, organism-based; details: in vivo
BXPC-3 [13] = experiment: Antitumor activity against human BXPC-3 cells xenografted in mouse assessed as effect on E-cadherin expression in tumor at 25 to 50 mg/kg, po administered for 14 days; type: functional, organism-based; details: dose 25-50 mg/kg, time 14.0 day
HUVEC [14] = experiment: Inhibition of VEGFR phosphorylation in HUVEC cells at 0.5 to 2 uM incubated for 24 hrs by Western blot assay; type: cell-based; details: Homo sapiens, dose 0.5-2 µM
[15] = Cytotoxicity against human MCF-10A cells assessed as inhibition of cell growth; type: toxicity, cell-based
BXPC-3 [16] = experiment: Effect on E-cadherin expression in TGF-beta induced human BXPC-3 cells at 0.1 to 0.5 uM incubated for 24 hrs by immunofluorescence assay; type: functional, cell-based; details: dose 0.1-0.5 µM
MDA-MB-231 [17] = experiment: Effect on STAT3 level in human MDA-MB-231 cells incubated for 24 to 72 hrs by Western blot analysis; type: functional, cell-based; details: time 24-72 hrs
[18] = Metabolic stability in rat liver microsome assessed as half life measured upto 240 mins by HPLC analysis; type: ADME; details: liver microsomes
[19] = Antiproliferative activity against mouse NIH/3T3 cells cultured as 3D tumor spheroids assessed as cell viability incubated for 72 hrs by CCK-8 assay; type: toxicity, cell-based, NIH3T3
BXPC-3 [20] = experiment: Effect on AXL expression in human BXPC-3 cells; type: functional, cell-based
HUVEC [21] = experiment: Anti-angiogenesis activity in HUVEC assessed as reduction in number of vascular nodes at 0.5 to 2 uM incubated for 24 hrs by Calcein AM staining based light microscopic analysis; type: functional, cell-based; details: Homo sapiens, dose 0.5-2 µM
MDA-MB-231 [22] = details: Homo sapiens, MDA-MB-231, 168 h
NIH3T3 = experiment: Antiproliferative activity against mouse NIH/3T3 cells cultured as 3D tumor spheroids assessed as reduction in pseudopodia on cell surface; type: functional, cell-based
MDA-MB-231 [23] = experiment: cells; details: Homo sapiens, MDA-MB-231, 72 h
Description: Antiproliferative activity against human MDA-MB-231 cells assessed as cell viability incubated for 72 hrs by MTT assay

NCI-H1975 = experiment: cells; details: Homo sapiens, NCI-H1975, 72 h
Description: Antiproliferative activity against human NCI-H1975 cells assessed as cell viability incubated for 72 hrs by MTT assay

BXPC-3 [24] = experiment: Antitumor activity against human BXPC-3 cells xenografted in mouse assessed as tumor growth inhibition at 25 mg/kg, po administered for 14 days; type: functional; details: BXPC-3, 336 h, time 14 day, read-out: TGI
BXPC-3 [25] = experiment: Induction of apoptosis in human BXPC-3 cells assessed as increase in BAX expression at 0.1 to 1 uM incubated for 24 hrs by Western blot analysis; type: functional, cell-based; details: dose 0.1-1 µM
[26] = biological target: Fibroblast growth factor receptor (Homo sapiens) (UniProt P22607+P11362+P22455+P21802); experiment: Inhibition of FGFR (unknown origin) by envision reader analysis; type: protein assay
Homo sapiens = species on record: Homo sapiens; experiment: Inhibition of SRC (unknown origin) by envision reader analysis
MDA-MB-231 [27] = experiment: Down regulation of Ki67 expression in human MDA-MB-231 cells by immunofluorescence assay; type: functional, cell-based
MDA-MB-231 [28] = experiment: Effect on E-cadherin expression in TGF-beta induced human MDA-MB-231 cells at 0.1 to 0.5 uM incubated for 24 hrs by immunofluorescence assay; type: functional, cell-based; details: dose 0.1-0.5 µM
HUVEC [29] = experiment: Anti-angiogenesis activity in HUVEC assessed as reduction in tube formation at 0.5 to 2 uM incubated for 24 hrs by Calcein AM staining based light microscopic analysis; type: functional, cell-based; details: Homo sapiens, dose 0.5-2 µM
BXPC-3 [30] = experiment: Antitumor activity against human BXPC-3 cells xenografted in mouse assessed as reduction in Ki67 expression in tumor at 25 to 50 mg/kg, po administered for 14 days; type: functional, organism-based; details: dose 25-50 mg/kg, time 14.0 day
[31] = Volume of distribution at steady state in Sprague-Dawley rat at 5 mg/kg, iv; type: ADME, organism-based; details: in vivo, read-out: Vdss
[32] = Oral bioavailability in Sprague-Dawley rat at 50 mg/kg; type: ADME, organism-based; details: Sprague-Dawley, in vivo
MDA-MB-231 [33] = experiment: Effect on N-cadherin expression in TGF-beta induced human MDA-MB-231 cells at 0.1 to 0.5 uM incubated for 24 hrs by immunofluorescence assay; type: functional, cell-based; details: dose 0.1-0.5 µM
[34] = Toxicity in mouse implanted with human BXPC-3 cells at 25 to 50 mg/kg, po measured on day 11; type: organism-based; details: in vivo, 264 h, dose 25-50 mg/kg, time 11 day
BXPC-3 [35] = experiment: Induction of apoptosis in human BXPC-3 cells assessed as decrease in Bcl-2 expression at 0.1 to 1 uM incubated for 24 hrs by Western blot analysis; type: functional, cell-based; details: dose 0.1-1 µM
BXPC-3 [36] = experiment: Antitumor activity against human BXPC-3 cells xenografted in mouse assessed as reduction in tumor weight at 50 mg/kg, po administered for 14 days; type: functional; parameters: scale not given: the % may be the effect or the level left; details: time 14 day
BXPC-3 [37] = experiment: Antitumor activity against human BXPC-3 cells xenografted in mouse assessed as reduction in tumor weight at 25 mg/kg, po administered for 14 days; type: functional; parameters: scale not given: the % may be the effect or the level left; details: time 14 day
[38] = biological target: BDNF/NT-3 growth factors receptor (Homo sapiens) (UniProt Q16620); experiment: Inhibition of TRKB (unknown origin) by envision reader analysis
[39] = Cytotoxicity against mouse NIH/3T3 cells assessed as cell viability incubated for 72 hrs by MTT assay; type: toxicity, cell-based, NIH3T3
BXPC-3 [40] = experiment: Antiproliferative activity against human BXPC-3 cells cultured as 3D tumor spheroids assessed as cell viability incubated for 7 days by CCK-8 assay; details: BXPC-3, 168 h
[41] = Cmax in Sprague-Dawley rat at 50 mg/kg, po; type: ADME, organism-based; details: in vivo
SW480 = experiment: cells; details: Homo sapiens, SW480, 72 h
Description: Antiproliferative activity against human SW480 cells assessed as cell viability incubated for 72 hrs by MTT assay

Chain of Vascular endothelial growth factor receptor 2 (P35968 whole entry): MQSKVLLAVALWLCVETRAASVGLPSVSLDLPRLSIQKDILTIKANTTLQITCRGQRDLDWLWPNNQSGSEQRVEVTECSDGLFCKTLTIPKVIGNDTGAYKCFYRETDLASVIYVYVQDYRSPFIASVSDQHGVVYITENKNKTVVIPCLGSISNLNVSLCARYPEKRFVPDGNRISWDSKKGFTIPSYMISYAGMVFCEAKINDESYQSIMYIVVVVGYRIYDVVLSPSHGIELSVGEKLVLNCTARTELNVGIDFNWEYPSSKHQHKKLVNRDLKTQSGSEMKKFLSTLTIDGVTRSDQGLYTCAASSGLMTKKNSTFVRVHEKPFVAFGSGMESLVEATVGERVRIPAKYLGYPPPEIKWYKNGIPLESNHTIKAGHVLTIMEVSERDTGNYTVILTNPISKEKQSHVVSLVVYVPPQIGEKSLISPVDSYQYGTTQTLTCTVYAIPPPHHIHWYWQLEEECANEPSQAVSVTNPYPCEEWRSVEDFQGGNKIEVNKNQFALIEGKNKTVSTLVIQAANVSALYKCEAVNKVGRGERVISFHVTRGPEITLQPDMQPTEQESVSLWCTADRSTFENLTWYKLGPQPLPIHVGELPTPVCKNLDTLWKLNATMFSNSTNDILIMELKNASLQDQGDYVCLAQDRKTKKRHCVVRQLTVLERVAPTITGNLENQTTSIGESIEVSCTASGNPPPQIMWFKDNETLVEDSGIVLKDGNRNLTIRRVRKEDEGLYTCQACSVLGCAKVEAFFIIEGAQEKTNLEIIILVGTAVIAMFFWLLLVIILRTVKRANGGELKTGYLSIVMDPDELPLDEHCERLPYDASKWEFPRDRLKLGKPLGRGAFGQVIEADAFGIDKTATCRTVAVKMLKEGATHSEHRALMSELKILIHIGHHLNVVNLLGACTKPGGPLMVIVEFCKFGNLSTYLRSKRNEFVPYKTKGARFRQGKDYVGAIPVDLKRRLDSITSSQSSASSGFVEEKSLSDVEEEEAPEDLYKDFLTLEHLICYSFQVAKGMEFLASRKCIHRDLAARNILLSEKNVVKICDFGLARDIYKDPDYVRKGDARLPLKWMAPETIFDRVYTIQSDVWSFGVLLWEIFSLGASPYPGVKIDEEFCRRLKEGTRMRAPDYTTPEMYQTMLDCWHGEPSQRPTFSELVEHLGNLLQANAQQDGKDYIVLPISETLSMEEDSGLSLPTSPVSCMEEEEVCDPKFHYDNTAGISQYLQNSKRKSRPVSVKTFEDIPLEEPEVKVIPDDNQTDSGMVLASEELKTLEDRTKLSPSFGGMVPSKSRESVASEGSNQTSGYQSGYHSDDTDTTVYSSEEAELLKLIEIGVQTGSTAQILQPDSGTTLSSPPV
Chain of Fibroblast growth factor receptor (Homo sapiens) (P11362 whole entry, looked up): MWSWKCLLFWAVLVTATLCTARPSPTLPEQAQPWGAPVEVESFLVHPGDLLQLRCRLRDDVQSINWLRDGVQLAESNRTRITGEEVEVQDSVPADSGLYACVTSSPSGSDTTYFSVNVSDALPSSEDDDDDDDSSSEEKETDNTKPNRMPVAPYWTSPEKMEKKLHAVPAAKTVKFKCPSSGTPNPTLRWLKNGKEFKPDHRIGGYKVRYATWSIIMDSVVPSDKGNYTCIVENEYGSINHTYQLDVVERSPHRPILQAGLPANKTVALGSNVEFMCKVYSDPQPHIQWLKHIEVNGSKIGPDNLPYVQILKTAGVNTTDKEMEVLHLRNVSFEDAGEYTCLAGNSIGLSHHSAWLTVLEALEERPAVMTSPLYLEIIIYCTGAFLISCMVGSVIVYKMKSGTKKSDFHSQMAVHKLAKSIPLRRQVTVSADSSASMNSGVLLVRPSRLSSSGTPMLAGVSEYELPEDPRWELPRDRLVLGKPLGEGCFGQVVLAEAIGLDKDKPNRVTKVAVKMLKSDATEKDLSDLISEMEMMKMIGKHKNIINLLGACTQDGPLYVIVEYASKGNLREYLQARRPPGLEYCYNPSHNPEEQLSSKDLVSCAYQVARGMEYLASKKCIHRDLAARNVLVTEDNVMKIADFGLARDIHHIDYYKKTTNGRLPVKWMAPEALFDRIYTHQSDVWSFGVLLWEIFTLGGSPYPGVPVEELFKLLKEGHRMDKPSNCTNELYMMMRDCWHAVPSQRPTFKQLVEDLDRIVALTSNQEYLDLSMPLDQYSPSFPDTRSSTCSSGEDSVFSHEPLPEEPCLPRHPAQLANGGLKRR
Chain of Fibroblast growth factor receptor (Homo sapiens) (P21802 whole entry, looked up): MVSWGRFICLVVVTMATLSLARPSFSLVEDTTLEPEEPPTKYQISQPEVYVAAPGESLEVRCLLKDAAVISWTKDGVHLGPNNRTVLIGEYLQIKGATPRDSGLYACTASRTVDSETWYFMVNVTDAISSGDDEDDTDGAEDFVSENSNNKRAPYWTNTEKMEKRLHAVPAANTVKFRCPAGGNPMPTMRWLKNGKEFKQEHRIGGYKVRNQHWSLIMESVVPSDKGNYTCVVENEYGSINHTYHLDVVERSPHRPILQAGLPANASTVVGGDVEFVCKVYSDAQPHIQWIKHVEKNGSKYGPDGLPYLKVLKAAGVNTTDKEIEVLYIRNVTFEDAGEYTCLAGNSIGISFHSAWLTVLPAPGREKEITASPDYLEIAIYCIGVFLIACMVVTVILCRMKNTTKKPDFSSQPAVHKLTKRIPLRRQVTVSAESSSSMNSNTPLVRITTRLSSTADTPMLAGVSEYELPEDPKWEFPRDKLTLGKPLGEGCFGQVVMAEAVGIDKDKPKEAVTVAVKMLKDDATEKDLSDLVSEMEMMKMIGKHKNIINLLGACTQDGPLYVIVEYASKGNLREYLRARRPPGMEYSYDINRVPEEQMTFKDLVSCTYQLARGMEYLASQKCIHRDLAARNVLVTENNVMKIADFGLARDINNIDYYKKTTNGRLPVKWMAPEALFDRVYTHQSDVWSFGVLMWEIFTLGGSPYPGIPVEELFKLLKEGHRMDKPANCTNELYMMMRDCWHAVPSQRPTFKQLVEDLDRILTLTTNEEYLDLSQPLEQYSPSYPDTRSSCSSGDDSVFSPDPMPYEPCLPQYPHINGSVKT
Chain of Fibroblast growth factor receptor (Homo sapiens) (P22455 whole entry, looked up): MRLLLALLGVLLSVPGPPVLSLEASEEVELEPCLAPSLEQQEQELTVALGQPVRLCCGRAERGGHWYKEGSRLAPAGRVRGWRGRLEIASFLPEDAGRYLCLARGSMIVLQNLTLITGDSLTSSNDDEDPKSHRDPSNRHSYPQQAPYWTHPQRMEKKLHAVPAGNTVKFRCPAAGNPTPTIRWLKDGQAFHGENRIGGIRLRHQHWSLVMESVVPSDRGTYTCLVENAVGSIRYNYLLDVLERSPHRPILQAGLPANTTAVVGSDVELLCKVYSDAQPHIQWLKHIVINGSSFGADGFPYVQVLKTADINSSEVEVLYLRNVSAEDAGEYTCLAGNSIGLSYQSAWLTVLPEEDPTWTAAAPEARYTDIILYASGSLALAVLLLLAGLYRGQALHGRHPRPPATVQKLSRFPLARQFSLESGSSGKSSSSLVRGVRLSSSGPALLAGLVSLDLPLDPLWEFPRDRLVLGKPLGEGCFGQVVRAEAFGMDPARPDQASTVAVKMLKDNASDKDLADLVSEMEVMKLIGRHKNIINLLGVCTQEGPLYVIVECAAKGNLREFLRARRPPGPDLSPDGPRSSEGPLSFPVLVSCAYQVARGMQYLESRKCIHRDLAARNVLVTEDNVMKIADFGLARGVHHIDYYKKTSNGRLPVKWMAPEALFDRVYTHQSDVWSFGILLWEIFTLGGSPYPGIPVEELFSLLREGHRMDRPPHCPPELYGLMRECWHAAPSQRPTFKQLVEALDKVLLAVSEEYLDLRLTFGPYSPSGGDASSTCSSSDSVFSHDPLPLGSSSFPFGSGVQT
Chain of Fibroblast growth factor receptor (Homo sapiens) (P22607 whole entry, looked up): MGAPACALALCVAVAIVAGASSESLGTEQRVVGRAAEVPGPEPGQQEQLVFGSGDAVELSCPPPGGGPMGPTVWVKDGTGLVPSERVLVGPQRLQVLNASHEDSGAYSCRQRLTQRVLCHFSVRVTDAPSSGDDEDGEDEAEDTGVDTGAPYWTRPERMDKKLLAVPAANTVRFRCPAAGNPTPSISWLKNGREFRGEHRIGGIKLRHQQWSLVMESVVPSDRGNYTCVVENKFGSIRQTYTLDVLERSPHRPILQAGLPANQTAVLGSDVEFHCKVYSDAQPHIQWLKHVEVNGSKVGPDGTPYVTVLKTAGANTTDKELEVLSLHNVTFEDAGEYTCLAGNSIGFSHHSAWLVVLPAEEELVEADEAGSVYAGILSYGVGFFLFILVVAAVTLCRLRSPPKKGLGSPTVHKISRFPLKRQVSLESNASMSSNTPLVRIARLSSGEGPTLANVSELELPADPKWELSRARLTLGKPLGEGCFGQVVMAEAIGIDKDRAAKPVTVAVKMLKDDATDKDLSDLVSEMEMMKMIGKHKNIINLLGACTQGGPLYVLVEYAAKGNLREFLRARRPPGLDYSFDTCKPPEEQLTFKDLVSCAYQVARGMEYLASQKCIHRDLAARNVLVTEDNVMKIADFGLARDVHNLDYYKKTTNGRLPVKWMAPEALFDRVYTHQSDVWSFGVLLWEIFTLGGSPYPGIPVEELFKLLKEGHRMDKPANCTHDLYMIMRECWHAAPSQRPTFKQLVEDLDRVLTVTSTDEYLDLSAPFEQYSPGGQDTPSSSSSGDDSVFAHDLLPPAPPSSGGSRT

## CCN1CCN(C(C)C(=O)N(C)c2ccc(N/C(=C3\C(=O)Nc4cc(Cl)ccc43)c3ccccc3)cc2)CC1 (racemic)
BXPC-3 [1]
  inhibition in vivo at 50 mg/kg: 83%
[2]
  IC50 at 72 h: 430 nM
BXPC-3 [3]
  IC50: 1010 nM
Mitochondrial membrane [4]
  Activity: Active
MDA-MB-231 [5]
  Activity: Active
[6]
  IC50: 1.52 nM
BXPC-3 [7]
  Activity: Active
[8]
  Activity: Non-toxic
[9]
  half-life: 4.36 h
Mitochondrial membrane [10]
  Activity: Active
[11]
  Tmax: 8 h
[12]
  clearance: 46.5 mL/min/kg
BXPC-3 [13]
  Activity: Active
HUVEC [14]
  inhibition: Active
[15]
  IC50: > 10000 nM
BXPC-3 [16]
  Activity: Active
MDA-MB-231 [17]
  Activity: inactive
[18]
  half-life: 0.518 h
[19]
  IC50 at 72 h: 2310 nM
BXPC-3 [20]
  Activity: Active
HUVEC [21]
  Activity: Active
MDA-MB-231 [22]
  IC50: 2220 nM
NIH3T3
  Activity: Active
MDA-MB-231 [23]
  IC50: 1160 nM
NCI-H1975
  IC50: 4380 nM
BXPC-3 [24]
  inhibition in vivo at 25 mg/kg: 96.7%
BXPC-3 [25]
  Activity: Active
[26]
  inhibition: Active
Homo sapiens
  inhibition: Active
MDA-MB-231 [27]
  Activity: Active
MDA-MB-231 [28]
  Activity: Active
HUVEC [29]
  Activity: Active
BXPC-3 [30]
  AC30: Active
[31]
  Vd: 12.8 L/kg
[32]
  bioavailability: 6.53%
MDA-MB-231 [33]
  Activity: Active
[34]
  Activity: Non-toxic
BXPC-3 [35]
  Activity: Active
BXPC-3 [36]
  Activity: 56.46%
BXPC-3 [37]
  Activity: 71%
[38]
  inhibition: Active
[39]
  IC50 at 72 h: 1140 nM
BXPC-3 [40]
  IC50: 1620 nM
[41]
  Cmax: 88 ng/mL
SW480
  IC50: 5910 nM
